# Experimental data: patent publication US20220372498A1, “STABILIZER FOR ADENO-ASSOCIATED VIRUSES AND METHOD FOR STABILIZING ADENO-ASSOCIATED VIRUSES BY USING SAME” (priority 2020, published 2022)
# Columns and labels:
# [1] = tested on: adeno-associated virus serotype 9 (AAV 9); assay: Crystal formation and average particle size after mixing surfactant-treated AAV solution with tannic acid solution (DLS, microscope); type: physicochemical; conditions: surfactant 0.05% (w/w) in AAV solution (PBS, pH 7.4) + 0.5 mM tannic acid, after about 10 minutes
# Experimental: The present inventors tried to check the change in AAV stability by treating a surfactant to solve the problem of AAV aggregation when preparing a gene delivery system using AAV. To this end, the effect was verified for various types of surfactants known in the art. More specifically, after mixing 50 uL of 0.5 mM tannic acid solution with 1×108 genome/ul AAV solution in which each of Tween 80, Triton X, CHAPS, cetrimonium bromide (CTAB), and sodium deoxycholate was present in a concentration of 0.05% (w/w) (PBS, pH 7.4), and then after about 10 minutes, the average particle size was measured through dynamic light scattering (DLS), and the formation of crystals that could cause blood vessel clogging was observed under a microscope. At this time, as a condition not treated with a surfactant, 50 uL of a 1×108 genome/ul AAV solution (PBS, pH 7.4) was mixed with 50 uL of 0.5 mM tannic acid solution, and average particle size measurement and microscopic observation were performed in the same manner as above.
# [2] = tested on: adeno-associated virus serotype 9 (AAV 9); assay: AAV stability according to surfactant concentration (UV-Vis absorbance 600 nm scattering, microscope); type: physicochemical; conditions: 0.5 mM tannic acid
# Experimental: 50 uL of 0.5 mM tannic acid solution was mixed with 1×108 genome/ul AAV solution in which Tween 80, a nonionic surfactant, is present in a concentration of 0.2%, 0.05%, 0.0125%, and 0.003% (w/w) (PBS, pH 7.4), respectively, and about 5 minutes after, UV-Vis absorbance in the 600 nm wavelength band was measured for scattering, and crystal formation was observed under a microscope.
# In addition, under conditions in which Triton X, another nonionic surfactant, is present in a concentration of 0.05%, 0.0125, 0.003%, and 0.0008% (w/w), respectively, AAV and tannic acid solutions were mixed in the same method as above, and the same experiment was performed, and the result was observed.
# (§1) 50 uL of 0.5 mM tannic acid solution was mixed with 1×108 genome/ul AAV solution in which the zwitterionic surfactant CHAPS is present in a concentration of 0.4%, 0.1%, 0.025%, 0.006% (w/w) (PBS, pH 7.4), respectively, and after about 5 minutes, UV-Vis absorbance in the 600 nm wavelength band was measured for scattering, and crystal formation was observed under a microscope.
# as §1, with “cationic” for “zwitterionic”, “CTAB” for “CHAPS”
# as §1, with “anionic” for “zwitterionic”, “sodium deoxycholate” for “CHAPS”, “0.2%, 0.05%, 0.0125%, […]” for “0.4%, 0.1%, 0.025%, 0.006%”
# [3] = tested on: adeno-associated virus serotype 9 (AAV 9); assay: Crystal formation after mixing FBS with surfactant-containing AAV and tannic acid (microscope); type: physicochemical; conditions: surfactant 0.05% (w/w), 0.5 mM tannic acid, then 50 uL of 10% FBS
# Experimental: Furthermore, the present inventors have attempted to verify whether the formation of a potential crystal structure that may block blood vessels when mixed with plasma may be suppressed through the treatment of a surfactant additionally. To this end, 50 uL of 0.5 mM tannic acid solution was mixed with 50 uL of 1×108 genome/ul AAV solution (PBS, pH 7.4) containing each of CTAB, Tween 80, and CHAPS in a concentration of 0.05% (w/w), and then about 5 minutes after, 50 uL of 10% FBS solution was mixed and observed whether crystals of 10 μm or larger were formed under a microscope.
# [4] = tested on: adeno-associated virus serotype 9 (AAV 9); assay: In vitro stability of particle size over time (DLS; UV-Vis 600 nm scattering); type: physicochemical; conditions: surfactant 0.05% (w/w); 0 min, 30 min, 1 day; compared among Tween 80, CHAPS, sodium deoxycholate
# Experimental: The size and shape of AAV particles must be maintained constantly from mixing to injection. Therefore, it was analyzed whether the particle size was maintained until after 30 minutes, which is a time taken from mixing to injection, and a sufficient time, one day. To this end, 50 uL of 0.5 mM tannic acid solution was mixed with 1×108 genome/ul AAV solution in which Tween 80 is present in a concentration of 0.01% (w/w) (PBS, pH 7.4), and then, after about 5 minutes, the average particle sizes were measured at 0 min, […], and 1 day, respectively, through a dynamic light scattering method, and the increase in particle sizes was compared with the initial value.
# In addition, 50 uL of 0.5 mM tannic acid solution was mixed with 1×108 genome/ul AAV solution in which various types of surfactants, i.e., Tween 80, CHAPS, and sodium deoxycholate are present in a concentration of 0.05% (w/w) each (PBS, pH 7.4), and then, after about 5 minutes, UV-Vis absorbance of each 600 nm wavelength band was measured at 0 min (min), 30 min, and 1 day (day) to measure the scattering degree. The change in particle size over time was analyzed through an increase in scattering compared to the initial value.
# [5] = tested on: adeno-associated virus serotype 9 (AAV 9); assay: AAV stability with albumin alone (DLS, microscope); type: physicochemical; conditions: 0.5 mM tannic acid, about 10 minutes
# Experimental: 50 uL of 0.5 mM tannic acid solution was mixed with 1×108 genome/ul AAV solution in which the albumin is present at various concentrations of 10%, 1%, 0.1%, 0.01% (w/w) (PBS, pH 7.4), respectively, and after about 10 minutes, the average particle size was measured through dynamic light scattering, and particle formation was observed under a microscope.
# [6] = Viability of mice after tail vein injection of AAV / tannic acid / Tween 80 mixtures; conditions: in vivo
# Text: On the other hand, the presence or absence of the formation of such crystalline particles is one of the major factors affecting the survival of experimental animals in animal experiments. Crystalline particles of more than 10 μm can block capillaries in the body, and clogged blood vessels can cause ischemic disease, myocardial infarction, cerebral infarction, rupture of blood vessels, etc., and in severe cases, leading to death. Therefore, the present inventors tried to experimentally confirm how the crystallinity was confirmed in the results of FIG. 1A affects the survival of mice. To this end, 50 uL of 0.5 mM or 0.25 mM tannic acid solution was mixed with 50 uL of 2×109 genome/ul AAV solution containing Tween 80 in a concentration of 0.01% (w/w) (PBS, pH 7.4), and then viability was confirmed by injecting 100 uL of mixed solution into the tail vein of the mouse within about 30 minutes (0.01% (w/w) Tween 80+0.5 mM TA+AAV/0.01% (w/w) Tween 80+0.25 mM TA+AAV). In addition, as a condition with the absence of surfactant, 50 uL of 2×109 genome/ul AAV solution without Tween 80 was mixed with tannic acid under the same conditions and injected into the tail vein of mice (0.5 mM TA+AAV/0.25 mM TA+AAV). […]
# [7] = surfactant 0.006% (w/w), PBS pH 7.4, about 5 minutes
# [8] = surfactant 0.025% (w/w), PBS pH 7.4, about 5 minutes
# [9] = surfactant 0.4% (w/w), PBS pH 7.4, about 5 minutes
# [10] = surfactant 0.003% (w/w), PBS pH 7.4, about 5 minutes
# [11] = surfactant 0.0125% (w/w), PBS pH 7.4, about 5 minutes
molecule,measurement,setting,value
"C[C@H](CCC(=O)NCCC[N+](C)(C)CCCS(=O)(=O)[O-])[C@H]1CC[C@H]2[C@@H]3[C@H](O)C[C@@H]4C[C@H](O)CC[C@]4(C)[C@H]3C[C@H](O)[C@]12C [CHAPS, 3-[(3-cholamidopropyl)dimethylammonio]-1-propanesulfonate]",formation of crystalline particles in which AAV was aggregated (microscope),[1],not observed
same,particle / crystal formation,[2]; [7],crystal structure was formed
same,particle / crystal formation,[2]; [8],nano-sized particles were formed
same,particle / crystal formation,"[2]; surfactant 0.1% (w/w), PBS pH 7.4, about 5 minutes",crystal structure was formed
same,particle / crystal formation,[2]; [9],crystal structure was formed
same,formation of crystals of 10 μm or larger after mixing FBS,[3],crystals are not formed
"CCCCCCCCCCCCCCCC[N+](C)(C)C.[Br-] [CTAB, cetrimonium bromide]",formation of crystalline particles in which AAV was aggregated (microscope),[1],not observed
same,particle / crystal formation,[2]; [7],crystal structure was formed
same,particle / crystal formation,[2]; [8],nano-sized particles
same,particle / crystal formation,[2]; [9],crystal structure was formed
same,formation of crystals of 10 μm or larger after mixing FBS,[3],crystals are not formed
Tween 80,formation of crystalline particles in which AAV was aggregated (microscope),[1],not observed
same,particle / crystal formation,[2]; [10],crystal structure was formed
same,particle / crystal formation,[2]; [11],nano-sized particles
same,particle / crystal formation,"[2]; surfactant 0.2% (w/w), PBS pH 7.4, about 5 minutes",crystal structure was formed
same,"change in particle size over time (increase in scattering, UV-Vis 600 nm)",[4],most stably maintained
same,formation of crystals of 10 μm or larger after mixing FBS,[3],crystals are not formed
albumin,particle / crystal formation,[5]; albumin 0.01% (w/w),crystal structure was formed
same,particle / crystal formation,[5]; albumin 0.1% (w/w),micro-sized particles were formed
same,particle / crystal formation,[5]; albumin 1% (w/w),crystal structure was formed
same,particle / crystal formation,[5]; albumin 10% (w/w),crystal structure was formed
Triton X,formation of crystalline particles in which AAV was aggregated (microscope),[1],not observed
same,particle / crystal formation,"[2]; surfactant 0.0008% (w/w), PBS pH 7.4, about 5 minutes",nano-sized particles were formed
same,particle / crystal formation,[2]; [10],nano-sized particles were formed
same,particle / crystal formation,[2]; [11],crystal structure was formed
same,particle / crystal formation,"[2]; surfactant 0.05% (w/w), PBS pH 7.4, about 5 minutes",crystal structure was formed
"O=C(OC[C@H]1O[C@@H](OC(=O)c2cc(O)c(O)c(OC(=O)c3cc(O)c(O)c(O)c3)c2)[C@H](OC(=O)c2cc(O)c(O)c(OC(=O)c3cc(O)c(O)c(O)c3)c2)[C@@H](OC(=O)c2cc(O)c(O)c(OC(=O)c3cc(O)c(O)c(O)c3)c2)[C@@H]1OC(=O)c1cc(O)c(O)c(OC(=O)c2cc(O)c(O)c(O)c2)c1)c1cc(O)c(O)c(OC(=O)c2cc(O)c(O)c(O)c2)c1 [TA, tannic acid]",Result (viability of mouse),[6],Survival
sodium deoxycholate,formation of crystalline particles in which AAV was aggregated (microscope),[1],large fibrous particles were observed
same,particle / crystal formation,"[2]; all concentrations: 0.2%, 0.05%, 0.0125%, 0.0003% (w/w), PBS pH 7.4",crystal structure was formed
